The text below walks through data of publication PMC6116703, “Ethenesulfonyl fluoride derivatives as telomerase inhibitors: structure-based design, SAR, and anticancer evaluation in vitro” (Journal of Enzyme Inhibition and Medicinal Chemistry, 2018).

Experiment [1] relates to gastric mucosa cell (GES-1). In words: Proliferative inhibition assay of human normal cell GES-1 (MTT). Type of experiment: cell-based. Here is the method:
(§1) The antiproliferative activities evaluation was conducted by using a modified procedure as described in the literature. Briefly, target tumour cells were grown to log phase in RPMI 1640 medium supplemented with 10% fetal bovine serum. After diluting to 3 × 10^4 cells mL^−1 with the complete medium, 100 µL of the obtained cell suspension was added to each well of 96-well culture plates. The subsequent incubation was performed at 37 °C, 5% CO2 atmosphere for 24 h before subjecting to antiproliferation assessment. The tested samples at pre-set concentrations were added to six wells with Doxorubicin (AMD) co-assayed as a positive reference. After 48 h of exposure period, 25 µL of PBS containing 2.5 mg·mL^−1 of MTT was added to each well. After 4 h, the medium was replaced by 150 µL DMSO to dissolve the purple formazan crystals produced. The absorbance at 570 nm of each well was measured using an ELISA plate reader. The data represented the mean of three experiments in triplicate and were expressed as means ± SD using Student’s test.
(§2) In order to determine the selective cancer cell toxicity of some title compounds. We subsequently conducted a proliferative inhibition assay with human normal liver cell (L-02) and gastric mucosa cell (GES-1).

The subject of the next experiment is human melanoma cell A375. Put plainly: Cell proliferation (MTT) assay, A375. Type of experiment: cell-based. On the procedure:
as §1

For experiment [2], the system named is human normal liver cell (L-02). Put plainly: Proliferative inhibition assay of human normal cell L-02 (MTT). The format is cell-based. Conditions: normal liver cells. On the procedure:
as §1, §2

For experiment [3], the system named is human breast cancer cell MDA-MB-231. Put plainly: Cell proliferation (MTT) assay, MDA-MB-231. Conditions: Homo sapiens, MDA-MB-231, 48 h, read-out: IC50 MDA-MB-231, antiproliferative, MTT, 48 h exposure. Type of experiment: cell-based. On the procedure: as §1
The target in another experiment is T1, telomerase (Homo sapiens, UniProt O14746).
T1 construct: endogenous in cells; host or cells: A375 human melanoma cells
T1 sequence (O14746 whole entry): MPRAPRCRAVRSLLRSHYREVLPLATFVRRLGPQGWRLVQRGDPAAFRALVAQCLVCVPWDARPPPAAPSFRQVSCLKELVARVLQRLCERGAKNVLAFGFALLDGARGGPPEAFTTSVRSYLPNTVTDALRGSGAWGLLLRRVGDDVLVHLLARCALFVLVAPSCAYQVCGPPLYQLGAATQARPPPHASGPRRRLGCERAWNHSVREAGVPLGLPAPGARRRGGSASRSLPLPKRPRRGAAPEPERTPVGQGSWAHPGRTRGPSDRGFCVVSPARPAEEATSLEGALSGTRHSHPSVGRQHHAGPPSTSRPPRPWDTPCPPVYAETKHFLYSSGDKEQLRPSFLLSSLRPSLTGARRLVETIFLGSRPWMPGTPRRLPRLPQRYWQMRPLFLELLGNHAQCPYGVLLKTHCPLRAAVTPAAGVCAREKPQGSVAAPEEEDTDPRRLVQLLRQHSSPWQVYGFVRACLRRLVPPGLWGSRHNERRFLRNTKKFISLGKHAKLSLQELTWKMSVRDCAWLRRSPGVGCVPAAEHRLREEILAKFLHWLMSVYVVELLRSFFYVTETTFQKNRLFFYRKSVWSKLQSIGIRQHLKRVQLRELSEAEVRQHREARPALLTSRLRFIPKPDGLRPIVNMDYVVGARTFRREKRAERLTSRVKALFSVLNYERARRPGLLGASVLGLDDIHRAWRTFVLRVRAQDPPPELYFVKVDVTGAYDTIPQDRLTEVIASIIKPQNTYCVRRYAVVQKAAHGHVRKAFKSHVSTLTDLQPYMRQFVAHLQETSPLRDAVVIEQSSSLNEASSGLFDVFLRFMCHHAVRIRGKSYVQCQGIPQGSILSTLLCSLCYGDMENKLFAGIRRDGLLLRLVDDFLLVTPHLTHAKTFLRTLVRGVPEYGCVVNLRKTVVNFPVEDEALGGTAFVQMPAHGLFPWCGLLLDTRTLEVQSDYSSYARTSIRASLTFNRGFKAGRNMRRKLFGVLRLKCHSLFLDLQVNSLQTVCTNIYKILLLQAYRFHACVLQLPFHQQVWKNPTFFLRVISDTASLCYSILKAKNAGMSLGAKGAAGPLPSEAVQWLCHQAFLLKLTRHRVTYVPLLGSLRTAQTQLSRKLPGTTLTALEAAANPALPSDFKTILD
Put plainly: Telomerase activity TRAP-PCR-ELISA assay (A375 cell extract). The format is biochemical. On the procedure: Thirty-six compounds were tested in a search for inhibitors of telomerase activity using the TRAP-PCR-ELISA assay. In detail, the A375 cells were firstly maintained in RPMI 1640 buffer (Hyclone, Miami, FL), supplemented with 10% fetal bovineserum (GIBCO, New York, NY), streptomycin (0.1 mg/mL) and penicillin (100 IU/mL) at 37 °C in a humidified atmosphere containing 5% CO2. After trypsinisation, 5 × 10^4 cultured cells in logarithmic growth were seeded into T25 flasks (Corning, New York, NY) and cultured to allow to adherence. […] After 24 h treatment, the cells were harvested by cell scraper orderly followed by washing once with PBS. The cells were lysed in 150 µL RIPA cell lysis buffer (Santa Cruz, Santa Cruz, CA), and incubated on ice for 30 min. The cellular supernatants were obtained via centrifugation at 12,000g for 20 min at 4 °C and stored at –80 °C. The TRAP-PCR-ELISA assay was performed using a telomerase detection kit (Roche, Basel, Switzerland) according to the manufacturer’s protocol. In brief, 2 µL of cell extracts were mixed with 48 µL TRAP reaction mixtures. TRAP primers and Taq polymerase are incubated at 25 °C for 30 min. PCR was then initiated at 94 °C, 120 s for predenaturation and performed using 35 cycles each consisting of 94 °C for 30 s, 50 °C for 30 s, 72 °C for 90 s. Then 20 µL of PCR products were hybridised to a digoxigenin (DIG)-labelled telomeric repeat specific detection probe. And the PCR products were immobilised via the biotin-labelled primer to a streptavidin-coated microtiter plate subsequently. The immobilised DNA fragments were detected with a peroxidase-conjugated anti-DIG antibody and visualised following the addition of the stop regent. The microtitre plate was assessed on TECAN Infinite M200 microplate reader (Mannedorf, Switzerland) at a wavelength of 490 nm, and the final value were presented as mean ± SD[23].
Background: An ELISA detects its analyte on a solid surface through an enzyme-linked reagent.

The subject of experiment [4] is human hepatoma cell SMMC-7721. Put plainly: Cell proliferation (MTT) assay, SMMC-7721. Type of experiment: cell-based. Conditions: Homo sapiens, SMMC-7721, 48 h, read-out: IC50 SMMC-7721. On the procedure: as §1
The test system of experiment [5] is human gastric cancer cells SGC-7901. Put plainly: Cell proliferation (MTT) assay, SGC-7901. The format is cell-based. Particulars: Homo sapiens, SGC-7901, 48 h, read-out: IC50 SGC-7901. Here is the method:
as §1

Experiment [6] deals with human gastric cancer cells MGC-803. In words: Cell proliferation (MTT) assay, MGC-803. The format is cell-based. Conditions: Homo sapiens, MGC-803, 48 h, read-out: IC50 MGC-803. Here is the method:
as §1

Setting [7] is: Homo sapiens, GES1, normal gastric mucosa cells.
Where [8] appears, read: Homo sapiens, A-375, 48 h, read-out: IC50 A375, antiproliferative, MTT, 48 h exposure.
[9] abbreviates: IC50 inhibitory activity against telomerase, TRAP-PCR-ELISA, A375 cells, 24 h treatment.
Setting [10] is: read-out: IC50 A375, antiproliferative, MTT, 48 h exposure.

The structures appear in SMILES notation. Read-outs that look alike come from different tables or passages of the source.

As usually defined, the IC50 is the concentration at which inhibition is half-maximal.

With `O=S(=O)(F)/C=C/c1ccccc1` [Compound 1], the half-maximal inhibitory concentration (IC50) in experiment [1] (setting [7]) was determined as 1450 ± 170 µM; with human melanoma cell A375 (setting [8]), 5.21 ± 0.39 µM; in experiment [2] (Homo sapiens), 1970 ± 200 µM; in experiment [3] it was 8.67 ± 0.61 µM; against telomerase (setting [9]) it was 2.41 ± 0.51 µM.
`O=S(=O)(F)/C=C/c1ccc(-c2ccccc2)cc1` [Compound 5]: the IC50 is 4.05 ± 0.2 µM in experiment [4]; 2000 ± 250 µM in experiment [1] (setting [7]); 5.84 ± 0.33 µM in the experiment on human melanoma cell A375 (setting [8]); 1330 ± 150 µM in experiment [2] (Homo sapiens); 32.9 ± 1.85 µM in experiment [5]; 8.39 ± 0.89 µM in experiment [3]. This molecule also showed an IC50 against telomerase (setting [9]) of 0.71 ± 0.28 µM. In addition, the “telomerase potency relative to positive control staurosporine” value at telomerase (ratio of telomerase IC50 values vs staurosporine) amounted to 12 times.
In the case of `O=Cc1ccc(/C=C/S(=O)(=O)F)cc1` [Compound 15], the IC50 came out at 2500 ± 220 µM in experiment [1] (setting [7]); 13.1 ± 0.7 µM in the experiment on human melanoma cell A375 (setting [8]); 2110 ± 190 µM in experiment [2] (Homo sapiens); 3.64 ± 0.22 µM in experiment [3]; 1.87 ± 0.41 µM against telomerase (setting [9]).
`CC(=O)c1ccccc1/C=C/S(=O)(=O)F` [Compound 25]: the figures for the IC50 in experiment [1] (setting [7]) and in experiment [2] (Homo sapiens) were 2800 ± 310 µM and 2450 ± 250 µM, respectively. For the same molecule, the “IC50 inhibitory activity against telomerase” value against telomerase (TRAP-PCR-ELISA, A375 cells, 24 h treatment) is listed as “no”.
Regarding `O=S(=O)(F)/C=C/c1ccc2ccccc2c1` [Compound 31], the concentration for half-maximal inhibition (IC50) in experiment [4] was 33.5 ± 0.88 µM; in experiment [1] (setting [7]) it was 1650 ± 180 µM; in the experiment with human melanoma cell A375 (setting [8]), roughly 3 µM; with human melanoma cell A375 (setting [10]), 3.49 ± 0.2 µM; in experiment [2] (Homo sapiens), 1410 ± 100 µM; in experiment [3] it was 24.1 ± 1.18 µM. The molecule further returned a 50% inhibitory concentration (IC50) at telomerase (setting [9]) of 0.81 ± 0.07 µM.
As to `Cc1ccc(S(=O)(=O)n2c3ccccc3c3cc(/C=C/S(=O)(=O)F)ccc32)cc1` [Compound 46], the IC50 in experiment [4] turned out to be 5.37 ± 0.11 µM; in experiment [1] (setting [7]) it was 1820 ± 110 µM; in the experiment on human melanoma cell A375 (setting [8]), 1.25 ± 0.07 µM; in experiment [2] (Homo sapiens), 2060 ± 180 µM; on telomerase (read-out: IC50 inhibitory activity against telomerase, TRAP-PCR-ELISA, A375 cells, 24 h treatment) it was 1.12 ± 0.27 µM.
For `O=S(=O)(F)/C=C/C=C/c1ccc(/C=C/S(=O)(=O)F)cc1` [Compound 57, (1E,3E)-4-(4-((E)-2-(fluorosulfonyl)vinyl)phenyl)buta-1,3-diene-1-sulfonyl fluoride], the half-inhibitory concentration (IC50) was less than 2000 µM in experiment [1] (setting [7]); 2190 ± 180 µM in experiment [1] (normal gastric mucosa cells); roughly 3 µM in the experiment with human melanoma cell A375 (setting [8]); 1.58 ± 0.06 µM in the experiment on human melanoma cell A375 (setting [10]); less than 2000 µM in experiment [2] (Homo sapiens); 2010 ± 160 µM in experiment [2]. Also, the IC50 in experiment [3] came to 3.22 ± 0.18 µM; at telomerase (setting [9]), 0.97 ± 0.12 µM.
As for `O=S(=O)(F)/C=C/c1cccc(/C=C/S(=O)(=O)F)c1` [Compound 70], the IC50 was 3 ± 0.18 µM in experiment [4]; roughly 3 µM in the experiment with human melanoma cell A375 (setting [8]); 3.09 ± 0.19 µM in the experiment with human melanoma cell A375 (setting [10]); 3.15 ± 0.27 µM in experiment [6]; 5.38 ± 0.3 µM in experiment [5]; 4.22 ± 0.2 µM in experiment [3]. At telomerase (setting [9]), this molecule yielded an IC50 of 1.01 ± 0.13 µM.
With `O=S(=O)(F)/C=C/c1cccc(-c2ccccc2)c1` [Compound 75], the half-inhibitory concentration (IC50) in experiment [4] was determined as 32.1 ± 1.02 µM; in experiment [1] (setting [7]) it was 1890 ± 170 µM; with human melanoma cell A375 (setting [8]) it was 9.27 ± 0.91 µM; in experiment [2] (Homo sapiens), 2440 ± 220 µM; in experiment [5], 21.9 ± 0.61 µM; in experiment [3] it was 21.3 ± 1.04 µM. This molecule returned a half-maximal inhibitory concentration (IC50) at telomerase (setting [9]) of 4.4 ± 2 µM.
